pKd: −log10 of the molar value. Activity calls are given as the source filed them.
Experiments:
[1] = biological target: Membrane-associated progesterone receptor component 1 (Homo sapiens, UniProt O00264)
[2] = biological target: Glycogen synthase kinase-3 beta (Homo sapiens, UniProt P49841)
[3] = biological target: T1, Isoleucine--tRNA ligase, mitochondrial (Homo sapiens, UniProt Q9NSE4)
T1 sequence (Q9NSE4 whole entry): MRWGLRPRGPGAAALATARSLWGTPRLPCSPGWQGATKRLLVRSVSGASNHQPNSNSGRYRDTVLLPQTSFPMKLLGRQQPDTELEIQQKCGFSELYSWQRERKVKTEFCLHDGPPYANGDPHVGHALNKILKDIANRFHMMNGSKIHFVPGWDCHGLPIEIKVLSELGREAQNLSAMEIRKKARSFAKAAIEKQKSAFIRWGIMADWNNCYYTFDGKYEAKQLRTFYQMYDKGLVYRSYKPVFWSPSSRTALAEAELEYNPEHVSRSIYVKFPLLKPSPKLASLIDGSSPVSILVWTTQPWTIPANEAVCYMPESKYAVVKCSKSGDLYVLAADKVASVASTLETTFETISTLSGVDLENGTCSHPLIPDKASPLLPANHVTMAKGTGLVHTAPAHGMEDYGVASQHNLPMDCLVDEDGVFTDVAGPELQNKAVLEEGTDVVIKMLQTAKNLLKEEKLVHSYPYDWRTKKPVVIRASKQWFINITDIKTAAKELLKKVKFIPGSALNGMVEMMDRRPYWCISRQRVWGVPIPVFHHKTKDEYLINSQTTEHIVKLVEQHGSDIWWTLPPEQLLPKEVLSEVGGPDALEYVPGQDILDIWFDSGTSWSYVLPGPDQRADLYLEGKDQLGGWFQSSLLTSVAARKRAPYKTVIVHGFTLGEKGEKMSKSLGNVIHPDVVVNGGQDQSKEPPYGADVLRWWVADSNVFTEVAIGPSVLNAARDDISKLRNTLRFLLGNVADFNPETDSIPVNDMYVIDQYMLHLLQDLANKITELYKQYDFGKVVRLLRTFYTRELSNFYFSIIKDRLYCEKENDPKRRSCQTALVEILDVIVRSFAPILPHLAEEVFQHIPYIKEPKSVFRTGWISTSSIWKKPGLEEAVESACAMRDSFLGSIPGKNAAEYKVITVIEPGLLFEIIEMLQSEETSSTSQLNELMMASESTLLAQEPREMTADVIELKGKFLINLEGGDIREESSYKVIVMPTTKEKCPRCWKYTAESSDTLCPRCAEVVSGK

[4] = biological target: Hepatocyte growth factor receptor (Homo sapiens, UniProt P08581)
[5] = biological target: T2, MAP/microtubule affinity-regulating kinase 4 (Homo sapiens, UniProt Q96L34)
T2 sequence (Q96L34 whole entry): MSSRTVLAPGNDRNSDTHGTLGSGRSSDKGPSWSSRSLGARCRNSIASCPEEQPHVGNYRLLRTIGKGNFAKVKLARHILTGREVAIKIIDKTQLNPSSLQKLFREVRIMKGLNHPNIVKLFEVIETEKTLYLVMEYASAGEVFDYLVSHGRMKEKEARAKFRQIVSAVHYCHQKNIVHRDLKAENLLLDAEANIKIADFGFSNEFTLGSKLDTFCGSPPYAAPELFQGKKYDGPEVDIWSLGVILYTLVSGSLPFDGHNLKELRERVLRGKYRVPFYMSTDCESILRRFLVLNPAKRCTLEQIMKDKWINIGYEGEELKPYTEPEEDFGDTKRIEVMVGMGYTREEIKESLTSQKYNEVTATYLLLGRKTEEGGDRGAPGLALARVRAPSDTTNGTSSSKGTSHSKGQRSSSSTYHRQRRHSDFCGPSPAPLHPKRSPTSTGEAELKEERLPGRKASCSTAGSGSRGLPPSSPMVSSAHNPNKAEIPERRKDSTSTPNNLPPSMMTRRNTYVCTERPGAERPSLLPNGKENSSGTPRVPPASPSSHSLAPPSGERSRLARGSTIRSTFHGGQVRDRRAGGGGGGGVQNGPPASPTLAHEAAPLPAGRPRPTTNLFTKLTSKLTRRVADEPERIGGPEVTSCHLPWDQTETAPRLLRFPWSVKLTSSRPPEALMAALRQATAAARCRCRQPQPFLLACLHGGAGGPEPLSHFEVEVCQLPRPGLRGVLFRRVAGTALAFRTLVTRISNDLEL

[6] = biological target: Protein kinase C theta type (Homo sapiens, UniProt Q04759)
[7] = biological target: PAS domain-containing serine/threonine-protein kinase (Homo sapiens, UniProt Q96RG2)
[8] = biological target: Serine/threonine-protein kinase Nek7 (Homo sapiens, UniProt Q8TDX7)
[9] = biological target: Dual specificity mitogen-activated protein kinase kinase 1 (Homo sapiens, UniProt Q02750)
[10] = biological target: Uncharacterized aarF domain-containing protein kinase 5 (Homo sapiens, UniProt Q3MIX3)
[11] = biological target: Dual specificity protein kinase CLK4 (Homo sapiens, UniProt Q9HAZ1)
[12] = biological target: Dual specificity protein kinase CLK3 (Homo sapiens, UniProt P49761); type: subcellular, K-562, COLO 205, SK-N-BE(2) and MV-4-11, Cell lysate; details: read-out: Kd apparent
[13] = biological target: Dual specificity testis-specific protein kinase 1 (Homo sapiens, UniProt Q15569)
Myosin-10 = Myosin-10 (Homo sapiens, UniProt P35580)
[14] = biological target: Rho-associated protein kinase 1 (Homo sapiens, UniProt Q13464)
[15] = biological target: Dual specificity testis-specific protein kinase 2 (Homo sapiens, UniProt Q96S53)
[16] = biological target: Dual specificity protein kinase CLK2 (Homo sapiens, UniProt P49760)
[17] = biological target: Choline-phosphate cytidylyltransferase A (Homo sapiens, UniProt P49585)
[18] = biological target: Epidermal growth factor receptor (Homo sapiens, UniProt P00533)
Also: in the data inactive means no Kd found up to 30 µM.

Glycogen synthase kinase-3 beta, sequence (P49841 whole entry): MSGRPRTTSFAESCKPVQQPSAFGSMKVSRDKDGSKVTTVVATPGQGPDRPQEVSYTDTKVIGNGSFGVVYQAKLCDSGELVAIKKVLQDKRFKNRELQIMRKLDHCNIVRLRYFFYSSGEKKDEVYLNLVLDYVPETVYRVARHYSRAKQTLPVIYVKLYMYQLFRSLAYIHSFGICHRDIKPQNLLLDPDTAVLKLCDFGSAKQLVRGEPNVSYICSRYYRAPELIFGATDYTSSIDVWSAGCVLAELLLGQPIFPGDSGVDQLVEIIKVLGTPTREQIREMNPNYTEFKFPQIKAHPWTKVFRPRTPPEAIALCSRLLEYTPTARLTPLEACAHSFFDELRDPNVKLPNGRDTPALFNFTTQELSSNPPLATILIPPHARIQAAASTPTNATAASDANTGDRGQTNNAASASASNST
PAS domain-containing serine/threonine-protein kinase, sequence (Q96RG2 whole entry, the tested form may be a part): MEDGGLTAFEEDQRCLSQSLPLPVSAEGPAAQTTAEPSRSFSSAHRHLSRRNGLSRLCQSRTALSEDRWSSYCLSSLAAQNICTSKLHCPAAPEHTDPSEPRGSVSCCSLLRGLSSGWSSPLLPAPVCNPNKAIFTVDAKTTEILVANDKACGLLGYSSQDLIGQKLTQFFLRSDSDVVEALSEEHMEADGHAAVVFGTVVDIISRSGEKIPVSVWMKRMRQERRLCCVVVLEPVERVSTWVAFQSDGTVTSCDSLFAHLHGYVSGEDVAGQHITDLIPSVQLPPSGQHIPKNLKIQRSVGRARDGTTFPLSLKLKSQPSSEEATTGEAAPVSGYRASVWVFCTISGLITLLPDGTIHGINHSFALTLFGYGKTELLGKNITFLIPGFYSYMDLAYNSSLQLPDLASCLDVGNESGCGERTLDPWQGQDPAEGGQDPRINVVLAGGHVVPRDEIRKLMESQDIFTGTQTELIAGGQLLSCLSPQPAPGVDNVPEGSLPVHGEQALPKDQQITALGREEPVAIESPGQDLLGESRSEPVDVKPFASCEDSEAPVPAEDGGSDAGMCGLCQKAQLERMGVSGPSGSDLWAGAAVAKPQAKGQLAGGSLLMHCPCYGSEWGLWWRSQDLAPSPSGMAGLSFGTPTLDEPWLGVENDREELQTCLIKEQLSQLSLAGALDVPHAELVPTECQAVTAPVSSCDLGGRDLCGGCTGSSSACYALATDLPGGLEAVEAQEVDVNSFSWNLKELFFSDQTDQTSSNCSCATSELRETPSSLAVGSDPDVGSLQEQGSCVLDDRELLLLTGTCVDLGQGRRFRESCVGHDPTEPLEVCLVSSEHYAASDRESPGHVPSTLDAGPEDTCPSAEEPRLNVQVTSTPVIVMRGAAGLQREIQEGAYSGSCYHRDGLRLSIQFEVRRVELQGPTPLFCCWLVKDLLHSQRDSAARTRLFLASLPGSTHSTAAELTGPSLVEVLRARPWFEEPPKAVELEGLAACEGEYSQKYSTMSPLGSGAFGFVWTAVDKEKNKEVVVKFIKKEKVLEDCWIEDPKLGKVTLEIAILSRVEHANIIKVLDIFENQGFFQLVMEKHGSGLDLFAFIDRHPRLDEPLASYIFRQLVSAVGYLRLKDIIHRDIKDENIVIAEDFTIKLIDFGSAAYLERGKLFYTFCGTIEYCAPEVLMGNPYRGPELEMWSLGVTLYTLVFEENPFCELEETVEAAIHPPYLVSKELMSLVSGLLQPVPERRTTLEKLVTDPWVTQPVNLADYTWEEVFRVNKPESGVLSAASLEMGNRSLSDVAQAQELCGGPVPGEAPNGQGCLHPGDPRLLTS
Membrane-associated progesterone receptor component 1, sequence (O00264 whole entry): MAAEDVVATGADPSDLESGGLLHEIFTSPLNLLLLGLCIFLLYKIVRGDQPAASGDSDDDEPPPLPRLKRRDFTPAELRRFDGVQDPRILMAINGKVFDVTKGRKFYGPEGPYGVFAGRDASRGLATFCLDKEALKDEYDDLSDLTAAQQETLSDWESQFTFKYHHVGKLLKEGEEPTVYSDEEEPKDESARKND
Choline-phosphate cytidylyltransferase A, sequence (P49585 whole entry): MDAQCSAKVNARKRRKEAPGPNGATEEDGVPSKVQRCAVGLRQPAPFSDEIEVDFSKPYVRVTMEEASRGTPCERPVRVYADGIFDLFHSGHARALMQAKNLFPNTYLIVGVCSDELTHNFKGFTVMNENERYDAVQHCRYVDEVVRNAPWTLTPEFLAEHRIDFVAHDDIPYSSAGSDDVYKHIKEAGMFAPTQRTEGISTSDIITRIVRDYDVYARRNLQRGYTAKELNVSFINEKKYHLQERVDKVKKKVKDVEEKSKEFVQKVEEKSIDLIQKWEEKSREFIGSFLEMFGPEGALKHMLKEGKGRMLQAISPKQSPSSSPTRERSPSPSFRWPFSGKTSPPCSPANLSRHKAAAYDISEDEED
Epidermal growth factor receptor, sequence (P00533 whole entry): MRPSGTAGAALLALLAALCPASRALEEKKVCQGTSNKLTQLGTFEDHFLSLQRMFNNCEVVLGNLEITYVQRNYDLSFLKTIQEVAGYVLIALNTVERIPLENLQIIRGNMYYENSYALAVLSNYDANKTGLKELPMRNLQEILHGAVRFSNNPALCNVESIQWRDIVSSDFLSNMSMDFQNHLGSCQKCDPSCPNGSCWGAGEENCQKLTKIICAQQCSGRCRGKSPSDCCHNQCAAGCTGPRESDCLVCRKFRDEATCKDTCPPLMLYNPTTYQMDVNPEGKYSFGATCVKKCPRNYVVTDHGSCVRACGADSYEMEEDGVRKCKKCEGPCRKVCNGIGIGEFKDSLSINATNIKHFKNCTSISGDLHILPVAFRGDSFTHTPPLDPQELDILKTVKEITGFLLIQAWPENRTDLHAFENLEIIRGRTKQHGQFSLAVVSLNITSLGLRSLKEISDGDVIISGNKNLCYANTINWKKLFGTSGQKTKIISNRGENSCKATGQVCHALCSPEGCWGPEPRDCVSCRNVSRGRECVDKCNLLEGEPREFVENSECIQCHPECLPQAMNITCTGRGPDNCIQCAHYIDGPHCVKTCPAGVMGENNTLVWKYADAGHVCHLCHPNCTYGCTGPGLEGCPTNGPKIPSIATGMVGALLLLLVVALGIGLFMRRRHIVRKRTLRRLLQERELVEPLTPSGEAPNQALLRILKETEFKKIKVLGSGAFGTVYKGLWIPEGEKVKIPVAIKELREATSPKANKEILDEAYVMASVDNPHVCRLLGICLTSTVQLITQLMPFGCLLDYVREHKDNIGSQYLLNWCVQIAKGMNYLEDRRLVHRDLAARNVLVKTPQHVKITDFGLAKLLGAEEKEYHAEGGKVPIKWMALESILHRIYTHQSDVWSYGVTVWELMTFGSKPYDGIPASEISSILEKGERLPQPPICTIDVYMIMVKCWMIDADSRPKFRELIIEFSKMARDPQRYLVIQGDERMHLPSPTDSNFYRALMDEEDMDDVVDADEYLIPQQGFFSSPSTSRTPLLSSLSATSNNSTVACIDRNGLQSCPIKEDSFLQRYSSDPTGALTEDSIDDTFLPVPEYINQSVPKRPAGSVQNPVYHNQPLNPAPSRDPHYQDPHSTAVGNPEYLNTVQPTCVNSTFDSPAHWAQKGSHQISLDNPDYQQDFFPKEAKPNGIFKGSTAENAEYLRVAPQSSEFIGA
Dual specificity testis-specific protein kinase 1, sequence (Q15569 whole entry): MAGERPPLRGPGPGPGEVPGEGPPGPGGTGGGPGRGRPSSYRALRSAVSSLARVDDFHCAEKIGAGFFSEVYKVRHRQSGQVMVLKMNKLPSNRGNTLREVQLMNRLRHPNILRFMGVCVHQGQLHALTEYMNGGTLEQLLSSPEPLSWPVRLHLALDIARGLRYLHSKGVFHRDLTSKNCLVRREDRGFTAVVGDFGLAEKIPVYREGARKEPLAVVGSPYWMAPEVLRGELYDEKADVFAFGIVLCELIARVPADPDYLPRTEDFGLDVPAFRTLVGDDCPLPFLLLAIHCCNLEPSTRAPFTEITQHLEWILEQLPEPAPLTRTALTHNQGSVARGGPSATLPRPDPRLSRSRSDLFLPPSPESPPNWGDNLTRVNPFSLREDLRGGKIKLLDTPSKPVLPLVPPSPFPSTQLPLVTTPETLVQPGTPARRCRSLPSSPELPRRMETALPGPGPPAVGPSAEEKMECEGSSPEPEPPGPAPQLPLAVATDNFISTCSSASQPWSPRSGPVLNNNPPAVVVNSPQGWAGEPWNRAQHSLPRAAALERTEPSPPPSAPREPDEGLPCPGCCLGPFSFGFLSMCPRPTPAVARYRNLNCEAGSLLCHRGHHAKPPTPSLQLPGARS
Dual specificity mitogen-activated protein kinase kinase 1, sequence (Q02750 whole entry, the tested form may be a part): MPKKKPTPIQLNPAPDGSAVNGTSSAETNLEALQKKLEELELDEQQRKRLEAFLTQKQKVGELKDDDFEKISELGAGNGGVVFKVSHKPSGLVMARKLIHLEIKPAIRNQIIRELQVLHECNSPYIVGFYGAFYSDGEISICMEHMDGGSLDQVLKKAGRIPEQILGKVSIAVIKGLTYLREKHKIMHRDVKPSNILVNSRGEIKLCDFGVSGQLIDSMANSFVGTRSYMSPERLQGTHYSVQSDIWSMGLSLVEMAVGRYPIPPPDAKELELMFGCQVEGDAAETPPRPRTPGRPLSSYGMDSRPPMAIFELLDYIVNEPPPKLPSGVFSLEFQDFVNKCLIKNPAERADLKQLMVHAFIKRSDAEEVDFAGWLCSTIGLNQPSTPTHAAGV
Serine/threonine-protein kinase Nek7, sequence (Q8TDX7 whole entry): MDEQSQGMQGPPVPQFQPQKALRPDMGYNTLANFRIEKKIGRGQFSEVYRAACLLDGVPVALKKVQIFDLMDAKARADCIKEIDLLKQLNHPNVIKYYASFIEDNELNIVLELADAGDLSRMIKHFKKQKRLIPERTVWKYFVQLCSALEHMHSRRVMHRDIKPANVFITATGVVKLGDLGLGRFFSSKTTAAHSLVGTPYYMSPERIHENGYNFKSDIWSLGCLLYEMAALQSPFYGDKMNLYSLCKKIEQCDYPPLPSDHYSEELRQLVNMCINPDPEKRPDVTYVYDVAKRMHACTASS

SMILES | Kd [1] | Kd [8] | Kd [15] | Kd [17] | Kd [2] | Kd [3] | Kd [4] | pKd [5] | Kd [6] | Kd [7] | Kd [9] | Kd [10] | Kd [11] | Kd [12] | Kd [13] | Kd (Myosin-10) | Kd [14] | Kd [16] | Kd [18] | Kd [5] | pKd [11] | pKd [16]
Cn1cc(-c2[nH]c3cc(NC(=O)[C@H](N)C4CCCCC4)cc4c3c2C=NNC4=O)cn1 | > 30 µM (inactive) | > 30 µM (inactive) | > 30 µM (inactive) |  | > 30 µM (inactive) | > 30 µM (inactive) | > 30 µM (inactive) | 7.44 | > 30 µM (inactive) | > 30 µM (inactive) | > 30 µM (inactive) | > 30 µM (inactive) | > 30 µM (inactive) | > 30 µM (inactive) | > 30 µM (inactive) | > 30 µM (inactive) | > 30 µM (inactive) | > 30 µM (inactive) |  |  |  | 
NC[C@@](O)(c1ccc(Cl)cc1)c1ccc(-c2cn[nH]c2)cc1 [AT-13148] | > 30 µM (inactive) |  |  | > 30 µM (inactive) | > 30 µM (inactive) | > 30 µM (inactive) | > 30 µM (inactive) |  | > 30 µM (inactive) |  | > 30 µM (inactive) |  |  |  |  | > 30 µM (inactive) | 0.027 µM (active) | > 30 µM (inactive) | > 30 µM (inactive) |  |  | 
CC1(COc2ccc3c(c2)ncn3-c2ccc3cccc(N4CCC(N)CC4)c3n2)COC1 [CRENOLANIB] |  | > 30 µM (inactive) | > 30 µM (inactive) |  | > 30 µM (inactive) | > 30 µM (inactive) | > 30 µM (inactive) |  |  | > 30 µM (inactive) | > 30 µM (inactive) | > 30 µM (inactive) |  | > 30 µM (inactive) | > 30 µM (inactive) | > 30 µM (inactive) | > 30 µM (inactive) |  | > 30 µM (inactive) | 0.025 µM (active) |  | 
C=CC(=O)Nc1cc(Nc2nccc(-c3cn(C)c4ccccc34)n2)c(OC)cc1N(C)CCN(C)C [OSIMERTINIB] | > 30 µM (inactive) | > 30 µM (inactive) | > 30 µM (inactive) |  | > 30 µM (inactive) | > 30 µM (inactive) |  |  | > 30 µM (inactive) |  | > 30 µM (inactive) |  | > 30 µM (inactive) | > 30 µM (inactive) |  | > 30 µM (inactive) | > 30 µM (inactive) | > 30 µM (inactive) |  | > 30 µM (inactive) |  | 
CN(c1ncccc1CNc1nc(Nc2ccc3c(c2)CC(=O)N3)ncc1C(F)(F)F)S(C)(=O)=O [PF-00562271] | > 30 µM (inactive) |  |  |  |  | > 30 µM (inactive) |  |  |  | > 30 µM (inactive) |  | > 30 µM (inactive) | > 30 µM (inactive) | > 30 µM (inactive) | > 30 µM (inactive) | > 30 µM (inactive) |  |  |  |  |  | 
COCCN1CCN(Cc2ccc(-c3n[nH]c4c3C(=O)c3c(NC(=O)NN5CCOCC5)cccc3-4)cc2)CC1 [RGB-286638] | > 30 µM (inactive) |  |  |  | 0.008 µM (active) | > 30 µM (inactive) | > 30 µM (inactive) |  | > 30 µM (inactive) |  | > 30 µM (inactive) | > 30 µM (inactive) |  | > 30 µM (inactive) | > 30 µM (inactive) | > 30 µM (inactive) | > 30 µM (inactive) | 0.018 µM (active) | > 30 µM (inactive) | > 30 µM (inactive) | 8.70 | 
CN1CCN(c2nc(C3=C(c4c[nH]c5ccccc45)C(=O)NC3=O)c3ccccc3n2)CC1 [SOTRASTAURIN] |  |  |  |  | 0.709 µM (active) | > 30 µM (inactive) | > 30 µM (inactive) |  | 0.013 µM (active) |  | > 30 µM (inactive) | > 30 µM (inactive) | > 30 µM (inactive) | > 30 µM (inactive) | > 30 µM (inactive) |  | > 30 µM (inactive) |  |  | > 30 µM (inactive) |  | 6.92

The next lines start with results.

Kd [1] | Kd [8] | Kd [15] | Kd [17] | SMILES | Kd [2] | Kd [3] | Kd [4] | pKd [5] | Kd [6] | Kd [7] | Kd [9] | Kd [10] | Kd [11] | Kd [12] | Kd [13] | Kd (Myosin-10) | Kd [14] | Kd [16] | Kd [18] | Kd [5] | pKd [11] | pKd [16]
> 30 µM (inactive) |  |  | > 30 µM (inactive) | CN(C)C/C=C/C(=O)Nc1cc2c(Nc3ccc(F)c(Cl)c3)ncnc2cc1O[C@H]1CCOC1 [AFATINIB] |  |  |  |  |  | > 30 µM (inactive) |  | > 30 µM (inactive) |  |  |  | > 30 µM (inactive) |  |  |  |  |  | 
> 30 µM (inactive) | > 30 µM (inactive) |  |  | COc1cc2nccc(Oc3ccc(NC(=O)C4(C(=O)Nc5ccc(F)cc5)CC4)cc3)c2cc1OC [CABOZANTINIB] | > 30 µM (inactive) | > 30 µM (inactive) |  |  | > 30 µM (inactive) |  | > 30 µM (inactive) |  | > 30 µM (inactive) | > 30 µM (inactive) |  | > 30 µM (inactive) | > 30 µM (inactive) | > 30 µM (inactive) |  | > 30 µM (inactive) |  | 
 | > 30 µM (inactive) | > 30 µM (inactive) |  | COc1cc2ncnc(Nc3ccc(F)c(Cl)c3)c2cc1NC(=O)/C=C/CN1CCCCC1 [DACOMITINIB ANHYDROUS] | > 30 µM (inactive) |  | > 30 µM (inactive) |  | > 30 µM (inactive) |  | > 30 µM (inactive) | > 30 µM (inactive) |  | > 30 µM (inactive) |  |  | > 30 µM (inactive) | > 30 µM (inactive) |  | > 30 µM (inactive) |  | 
> 30 µM (inactive) | > 30 µM (inactive) |  |  | O=S(=O)(c1cccc2c(O)nccc12)N1CCCNCC1 [HYDROXYFASUDIL] | > 30 µM (inactive) |  | > 30 µM (inactive) |  | > 30 µM (inactive) | > 30 µM (inactive) | > 30 µM (inactive) | > 30 µM (inactive) | > 30 µM (inactive) | > 30 µM (inactive) |  | > 30 µM (inactive) |  | > 30 µM (inactive) |  |  |  | 
> 30 µM (inactive) |  | > 30 µM (inactive) | > 30 µM (inactive) | CC1(C)CNc2cc(NC(=O)c3cccnc3NCc3ccncc3)ccc21 [MOTESANIB] |  |  |  |  |  |  |  | > 30 µM (inactive) |  |  |  | > 30 µM (inactive) |  |  |  |  |  | 
> 30 µM (inactive) |  | > 30 µM (inactive) | > 30 µM (inactive) | Cn1cnc2c(F)c(Nc3ccc(Br)cc3Cl)c(C(=O)NOCCO)cc21 [SELUMETINIB] |  | > 30 µM (inactive) |  |  |  | > 30 µM (inactive) |  |  |  |  |  | > 30 µM (inactive) |  |  |  |  |  | 
> 30 µM (inactive) | > 30 µM (inactive) | > 30 µM (inactive) |  | O=C(O)c1ccc2c(c1)nc(Nc1cccc(Cl)c1)c1ccncc12 [SILMITASERTIB] |  |  | > 30 µM (inactive) |  |  |  | > 30 µM (inactive) |  | > 30 µM (inactive) | 0.01 µM (active) | > 30 µM (inactive) |  |  |  | > 30 µM (inactive) |  |  | 
